Source: patent publication US10807988B2, “3-((hetero-)aryl)-8-amino-2-oxo-1,3-diaza-spiro-[4.5]-decane derivatives” (Grünenthal GmbH, priority 2016, dated 2020)

molecular target: human mu-opioid peptide (hMOP) receptor (Homo sapiens (Human), UniProt P35372); assay: Human mu-opioid peptide (hMOP) receptor binding assay (SPA, [3H]naloxone displacement)
Sequence (P35372 whole entry): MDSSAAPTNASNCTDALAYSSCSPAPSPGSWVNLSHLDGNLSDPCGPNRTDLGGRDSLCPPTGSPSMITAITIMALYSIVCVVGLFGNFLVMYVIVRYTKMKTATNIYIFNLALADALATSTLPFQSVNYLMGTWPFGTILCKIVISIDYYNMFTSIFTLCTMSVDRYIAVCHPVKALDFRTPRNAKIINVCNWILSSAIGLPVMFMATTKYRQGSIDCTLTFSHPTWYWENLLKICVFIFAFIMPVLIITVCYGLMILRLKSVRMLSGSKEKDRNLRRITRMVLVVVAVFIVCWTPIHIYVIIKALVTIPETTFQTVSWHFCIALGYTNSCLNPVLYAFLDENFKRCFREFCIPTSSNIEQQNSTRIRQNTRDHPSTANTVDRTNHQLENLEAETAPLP

SMILES	hMOP % inhibition at 1 μM	Ki
CN(CC1CCOC1)[C@]1(c2ccccc2)CC[C@]2(CC1)CN(c1cnc(N3CCOCC3)nc1)C(=O)N2 (stereo partly drawn) [SC_3304, cis-8-[Methyl-(tetrahydro-furan-3-yl-methyl)-amino]-3-(2-morpholin-4-yl-pyrimidin-5-yl)-8-phenyl-1,3-diazaspiro[4.5]decan-2-one]	4%	–
CNC1(c2ccccc2)CCC2(CC1)CN(c1ccccc1C(N)=O)C(=O)N2 (stereo not drawn) [SC_3119, cis-2-(8-Methylamino-2-oxo-8-phenyl-1,3-diazaspiro[4.5]decan-3-yl)-benzamide]	10%	–
CN(C)[C@]1(c2ccccc2)CC[C@]2(CC1)CN(c1cnc(C#N)nc1)C(=O)N2CCO [SC_3025, cis-5-[8-Dimethylamino-1-(2-hydroxy-ethyl)-2-oxo-8-phenyl-1,3-diazaspiro[4.5]decan-3-yl]-pyrimidine-2-carbonitrile]	–	1530 nM
CN(CC1CCOC1)[C@]1(c2ccccc2)CC[C@]2(CC1)CN(c1cnc(N3CCOCC3)nc1)C(=O)N2 (stereo partly drawn) [SC_3305, cis-8-[Methyl-(tetrahydro-furan-3-yl-methyl)-amino]-3-(2-morpholin-4-yl-pyrimidin-5-yl)-8-phenyl-1,3-diazaspiro[4.5]decan-2-one]	0%	–
CN(C)C1(c2nc3ccccc3n2C)CCC2(CC1)CN(c1cnc(C(F)(F)F)nc1)C(=O)N2 (stereo not drawn) [SC_3219, cis-8-Dimethylamino-8-(1-methyl-1H-benzoimidazol-2-yl)-3-[2-(trifluoromethyl)-pyrimidin-5-yl]-1,3-diazaspiro[4.5]decan-2-one]	1%	–

molecular target: human nociceptin/orphanin FQ peptide (hNOP) receptor (Homo sapiens (Human), UniProt P41146); assay: not given; assay type: binding

SMILES	hNOP % inhibition at 10 μM	hNOP % inhibition at 1 μM
CCNC1(c2ccccc2)CCC2(CC1)CN(c1ccccc1C(N)=O)C(=O)N2 (stereo not drawn) [SC_3125, trans-2-(8-Ethylamino-2-oxo-8-phenyl-1,3-diazaspiro[4.5]decan-3-yl)-benzamide]	3%@10 μM	–
CN(C)[C@]1(Cc2ccccc2)CC[C@@]2(CC1)CN(c1cnc(C(F)(F)F)nc1)C(=O)N2 [SC_3166, trans-8-Benzyl-8-dimethylamino-3-[2-(trifluoromethyl)-pyrimidin-5-yl]-1,3-diazaspiro[4.5]decan-2-one]	–	3%
CCN[C@]1(c2ccccc2)CC[C@]2(CC1)CN(c1cnc(C#N)nc1OC)C(=O)N2 [SC_3143, cis-5-(8-Ethylamino-2-oxo-8-phenyl-1,3-diazaspiro[4.5]decan-3-yl)-4-methoxy-pyrimidine-2-carbonitrile]	–	0%
CN(CC1CCOC1)[C@]1(c2ccccc2)CC[C@]2(CC1)CN(c1cnc(N3CCOCC3)nc1)C(=O)N2 (stereo partly drawn) [SC_3304, cis-8-[Methyl-(tetrahydro-furan-3-yl-methyl)-amino]-3-(2-morpholin-4-yl-pyrimidin-5-yl)-8-phenyl-1,3-diazaspiro[4.5]decan-2-one]	–	9%
CCN[C@]1(c2ccccc2)CC[C@]2(CC1)CN(c1ccccc1C#N)C(=O)N2 [SC_3128, cis-2-(8-Ethylamino-2-oxo-8-phenyl-1,3-diazaspiro[4.5]decan-3-yl)-benzonitrile]	–	0%
CCNC1(c2ccccc2)CCC2(CC1)CN(c1ccc(C#N)cc1OC)C(=O)N2 (stereo not drawn) [SC_3135, cis-4-(8-Ethylamino-2-oxo-8-phenyl-1,3-diazaspiro[4.5]decan-3-yl)-3-methoxy-benzonitrile]	–	1%
CNC1(c2ccccc2)CCC2(CC1)CN(c1ccccc1C(N)=O)C(=O)N2 (stereo not drawn) [SC_3119, cis-2-(8-Methylamino-2-oxo-8-phenyl-1,3-diazaspiro[4.5]decan-3-yl)-benzamide]	–	22%
CN(C)C1(Cc2ccccc2)CCC2(CC1)CN(c1cnc(N3CCOCC3)nc1)C(=O)N2 (stereo not drawn) [SC_3161, cis-8-Benzyl-8-dimethylamino-3-(2-morpholin-4-yl-pyrimidin-5-yl)-1,3-diazaspiro[4.5]decan-2-one]	–	2%
CN(C)[C@]1(Cc2ccccc2)CC[C@@]2(CC1)CN(c1cnc(N3CCOCC3)nc1)C(=O)N2 [SC_3160, trans-8-Benzyl-8-dimethylamino-3-(2-morpholin-4-yl-pyrimidin-5-yl)-1,3-diazaspiro[4.5]decan-2-one]	–	4%
CN1CCN(c2ncc(N3CC4(CCC(c5ccccc5)(N(C)CC5CCOC5)CC4)NC3=O)cn2)CC1 (single isomer, unassigned; enantiomer 1) [SC_3324, cis-3-[2-(4-Methyl-piperazin-1-yl)-pyrimidin-5-yl]-8-[methyl-(tetrahydro-furan-3-yl-methyl)-amino]-8-phenyl-1,3-diazaspiro[4.5]decan-2-one (enantiomer 1)]	–	12%
CN(C)C1(Cc2ccccc2)CCC2(CC1)CN(c1cnc(C(F)(F)F)nc1)C(=O)N2 (stereo not drawn) [SC_3165, cis-8-Benzyl-8-dimethylamino-3-[2-(trifluoromethyl)-pyrimidin-5-yl]-1,3-diazaspiro[4.5]decan-2-one]	–	4%
Cc1cc(C(F)(F)F)ncc1N1CC2(CCC(Cc3ccccc3)(N(C)C)CC2)NC1=O (stereo not drawn) [SC_3215, cis-8-Benzyl-8-dimethylamino-3-[4-methyl-6-(trifluoromethyl)-pyridin-3-yl]-1,3-diazaspiro[4.5]decan-2-one]	–	0%
Cc1cc(C(F)(F)F)ncc1N1C[C@]2(CC[C@@](Cc3ccccc3)(N(C)C)CC2)NC1=O [SC_3174, trans-8-Benzyl-8-dimethylamino-3-[4-methyl-6-(trifluoromethyl)-pyridin-3-yl]-1,3-diazaspiro[4.5]decan-2-one]	–	3%
CCN[C@]1(c2ccccc2)CC[C@@]2(CC1)CN(c1cnc(C#N)nc1OC)C(=O)N2 [SC_3144, trans-5-(8-Ethylamino-2-oxo-8-phenyl-1,3-diazaspiro[4.5]decan-3-yl)-4-methoxy-pyrimidine-2-carbonitrile]	–	0%
CN(CC1CCOC1)[C@]1(c2ccccc2)CC[C@]2(CC1)CN(c1cnc(N3CCOCC3)nc1)C(=O)N2 (stereo partly drawn) [SC_3305, cis-8-[Methyl-(tetrahydro-furan-3-yl-methyl)-amino]-3-(2-morpholin-4-yl-pyrimidin-5-yl)-8-phenyl-1,3-diazaspiro[4.5]decan-2-one]	–	10%
CCNC1(c2ccccc2)CCC2(CC1)CN(c1ccccc1C(N)=O)C(=O)N2 (stereo not drawn) [SC_3126, cis--2-(8-Ethylamino-2-oxo-8-phenyl-1,3-diazaspiro[4.5]decan-3-yl)-benzamide]	–	0%
CN(C)C1(c2nc3ccccc3n2C)CCC2(CC1)CN(c1cnc(C(F)(F)F)nc1)C(=O)N2 (stereo not drawn) [SC_3219, cis-8-Dimethylamino-8-(1-methyl-1H-benzoimidazol-2-yl)-3-[2-(trifluoromethyl)-pyrimidin-5-yl]-1,3-diazaspiro[4.5]decan-2-one]	–	0%
CCNC1(c2ccccc2)CCC2(CC1)CN(c1ccc(C#N)cc1OC)C(=O)N2 (stereo not drawn) [SC_3134, trans-4-(8-Ethylamino-2-oxo-8-phenyl-1,3-diazaspiro[4.5]decan-3-yl)-3-methoxy-benzonitrile]	3%@10 μM	–
CCN[C@]1(c2ccccc2)CC[C@@]2(CC1)CN(c1ccccc1C#N)C(=O)N2 [SC_3127, cis-2-(8-Ethylamino-2-oxo-8-phenyl-1,3-diazaspiro[4.5]decan-3-yl)-benzonitrile]	–	0%
CN1CCN(c2ncc(N3CC4(CCC(c5ccccc5)(N(C)CC5CCOC5)CC4)NC3=O)cn2)CC1 (single isomer, unassigned; enantiomer 2) [SC_3325, cis-3-[2-(4-Methyl-piperazin-1-yl)-pyrimidin-5-yl]-8-[methyl-(tetrahydro-furan-3-yl-methyl)-amino]-8-phenyl-1,3-diazaspiro[4.5]decan-2-one (enantiomer 2)]	53%@10 μM	–
